From patent US20120231007A1, “MODULATORS OF CELL CYCLE PROGRESSION” (SINGAPORE HEALTH SERVICES PTE. LTD., priority 2009, published 2012) come the findings set out here.

Peptide text beside a SMILES is read from it. * marks the point of attachment. Cbz = O=C(OCc1ccccc1)*

Assay [1] relates to U118 glioma cells. Kind of assay: Warburg effect: Western blot of AMPK phosphorylation, mTOR activity and ECT2 expression. It is filed as cell-based, human. On the procedure: Western blot analysis. Whole cell lysates were prepared at the indicated time points following treatment. Cells were lysed in 0.1% SDS buffer (50 mM Tris-HCl, pH7.5, 150 mM NaCl, 1% NP-40, 1% sodium deoxycholate, 0.1 mM sodium vanadate, 50 mM b-glycerophosphate, 1 mM NaF) supplemented with protease inhibitor cocktail (Roche, Basel, Switzerland). Lysates were clarified by centrifugation at 13,000 rpm for 20 min at 4° C. Protein quantity was determined by the Bradford Assay Reagent (Bio-Rad). Typically, 50 μg of protein was resolved on either 6% or 12% SDS-polyacrylamide and transferred onto PVDF membranes (Millipore, Billerica, Mass.). Membranes were probed using antibodies specific to Ect2 and other proteins listed in the attached document. Protein bands were visualized by chemiluminescence using the ECL Western blotting system (Amersham, Arlington Heights, Ill.) according to manufacturer's protocol. Actin was used as loading control.
The use of ECT2 inhibitor sensitizes glioma cell stochemotherapy treatment such as with Temozolomide (FIG. 14). ECT2 regulation by RTK/mTOR pathway through EGFR inhibition (FIG. 18) with Erlotinib (10 uM) (FIG. 18A), Akt inhibition with API2 (10 uM), and mTOR inhibition with Rapamycin (50 nM) (FIG. 18B) Warburg effect and ECT2 regulation was examined in U118 glioma cells. The cells were treated with glycolysis or oxidative phosphorylation inhibitors [2-Deoxy-glucose (2DG) and oligomycin, respectively]. Filipin III was used to permeabilise mitochondria to provide exogenous source of pyruvate for the Tricarboxylic acid (TCA) cycle. Cellular energy level was measured by Western blot analysis of AMPK phosphorylation.
(A western blot detects proteins with antibodies after separation by electrophoresis.)

Assay [2] concerns p27^Kip1. Kind of assay: Western blot of p27^Kip1 protein. It is filed as cell-based, human. The following applies: MG132 100 nM added to cells over-expressing Ect2. On the procedure: Cell Culture and Transfection. A172, U87, U118, U373 and T98G human glioma cells (ATCC, Manassas, Va.) were cultured in Dulbecco's modified Eagle's medium (DMEM) supplemented with 10% fetal bovine serum (Hyclone, South Logan, Utah). Cells were synchronised at quiescence through serum starvation. Full-length human Ect2 was cloned into the expression vector pXJ41 using EcoRI and BamHI digestion. The Ect2 truncation mutants ΔN-Ect2-DH/PH/C, ΔN-Ect2-DH/PH and ΔN-Ect2-DH were cloned in pCTV3-HA3. p27-PF, p27-ApaI, pGVB2 were gifts. For transient expression, cells were seeded at 40% confluence and transfected with 1.5 μg of DNA using Polyfect transfection reagent (Qiagen GmBH, Hilden, Germany). For knockdown experiments, Ect2 siRNAs were transfected into cells using SilentFect (Bio-Rad, Hercules, Calif.). RhoA inhibitor C3 exoenzyme (Upstate Biotech, Billerica, Mass.) was introduced into cells using Lipofectamine2000 (Invitrogen, Carlsbad, Calif.) at a concentration of 10 mg/ml. Cells were treated with the proteasome inhibitor MG132 (Calbiochem, San Diego, Calif.) at a concentration of 100 nM.
Western blot analysis. Whole cell lysates were prepared at the indicated time points following treatment. […] Protein quantity was determined by the Bradford Assay Reagent (Bio-Rad). […]

For `O=CC[C@@H](O)[C@H](O)[C@H](O)CO` [2DG, 2-Deoxy-D-glucose], in assay [1], the ECT2 expression result is given as “reduced” and the mTOR activity entry was “significantly lower”. In addition, in assay [1] (glycolysis inhibition), the “phosphorylated AMPK” value is “higher level”.

With `CC(C)C[C@@H](C=O)NC(=O)[C@H](CC(C)C)NC(=O)[C@H](CC(C)C)NC(=O)OCc1ccccc1` [MG132] (Cbz-Leu-Leu-Leu-aldehyde), the “Ect2-mediated suppression of p27^Kip1” value in assay [2] is “completely abrogated”.

As to `CC[C@H]1/C=C/C=C/C[C@@H](C)[C@H](O)[C@@](C)(O)C(=O)[C@@H](C)[C@H](O)[C@@H](C)C(=O)[C@@H](C)[C@H](O)[C@@H](C)/C=C/C(=O)O[C@@H]2[C@H](C)[C@H](CC1)O[C@]1(CC[C@H](C)[C@H](C[C@@H](C)O)O1)[C@H]2C` [oligomycin], in assay [1], the ECT2 expression result is recorded as “did not affect” and the mTOR activity result is reported as “did not affect”.
